Test results from publication PMC10518255, “A first-in-class pan-lysyl oxidase inhibitor impairs stromal remodeling and enhances gemcitabine response and survival in pancreatic cancer” (Nature Cancer, 2023).
“And” between values parts separate entries of the source, which are not always exact repeats. Identical values can stand only once.

Assays:
Microsomal stability = format: in vitro ADME; details: microsomes; In vitro (human)
KPC CCs = test: 2D cell viability assay (MTS); format: cell-based, mouse; details: for 2D cell viability (MTS assay): Cancer cells, replicates
Experimental: (§1) The 2D cell viability assays were performed using KPC CAFs and CCs seeded at (250 CAFs per well) and (500 CCs per well) in a 96-well plate. MTS solution (Promega) was added to the cells at a 1:20 dilution and cells were incubated at 37 °C for 2 h. Cell proliferation rates were measured by detecting the absorbance at 490 nm using a microplate reader. Three biological repeats were performed.
(§2) Data presented as mean values +/− SD. f. […] Data presented as mean values +/− SD. […] Data presented as mean values +/− SD. […] Data presented as mean values +/− SD. Ordinary one-way ANOVA for multiple comparison test performed. Source data

[1] = 2D cell viability assay (MTS); format: cell-based, mouse; details: mouse, replicates
Experimental: as §1, §2

KPC CAFs = test: 2D cell viability assay (MTS); format: cell-based, mouse; details: for 2D cell viability (MTS assay): CAFs, replicates
Experimental: as §1, §2

[2] = system: Lysyl oxidase family activity in ear; test: Target engagement: lysyl oxidase family activity in ear after single 30 mg/kg oral dose (Fig. 2g); format: in vivo, rat; design: Lysyl oxidase family activity in the ear: unit not given here; details: rats; for Lysyl oxidase family activity in the ear: single 30 mg/kg oral, individual samples, 30 mg/kg
Experimental: (§3) Data are presented as mean ± s.d. Two-tailed P value determined by unpaired, nonparametric t-test with a Mann–Whitney U-test correction (comparison to PBS control). h, Lysyl oxidase family activity measured in freshly excised aorta determined by fluorometric activity assay n = 19 (PBS), 5 (4–120 h) biological independent samples. Data presented as mean ± s.d. Two-tailed P value determined by unpaired, nonparametric t-test with a Mann–Whitney U-test correction (comparison to PBS control).
(§4) To confirm that PXS-5505 inhibits lysyl oxidase family enzymatic activity in tissues, target engagement experiments were performed following a single oral dose (30 mg kg^−1) in rats. […] Lysyl oxidase family activity was measured in two tissues; aorta (core tissue) and ear (peripheral tissue).

[3] = system: Lysyl oxidase family activity in aorta; test: Target engagement: lysyl oxidase family activity in freshly excised aorta, fluorometric activity assay (Fig. 2h); format: in vivo, rat; design: Lysyl oxidase family activity in freshly excised aorta: unit not given here; details: for Lysyl oxidase family activity in freshly excised aorta: single 30 mg/kg oral, individual samples, 30 mg/kg
Experimental: as §3, §4

Cl.Cl.NC/C=C(\F)CS(=O)(=O)c1cccc2cccnc12.O [PXS-5505, (Z)-3-fluoro-4-(quinolin-8-ylsulfonyl)but-2-en-1-amine dihydrochloride monohydrate]
remaining at 1 h (Microsomal stability): 97%
2D cell viability (MTS assay) (KPC CCs; PXS-5505 0.3 (unit not given)): 100 and 109.75
2D cell viability (MTS assay) (KPC CCs; PXS-5505 3 (unit not given)): 110.09 and 116.21
2D cell viability (MTS assay) (KPC CCs; PXS-5505 30 (unit not given)): 104.54 and 100.45
2D cell viability (MTS assay) (KPC CCs; PXS-5505 100 (unit not given)): 94.9 and 85.15
2D cell viability (MTS assay) (KPC CCs; PXS-5505 300 (unit not given)): 94.9 and 96.71
effect on proliferation, 2D (KPC CCs; KPC CCs, up to 300 µM): nor did it show any effect on proliferation
viability ([1]; KPC CAFs (2D culture), CAFs, PXS-5505 0.3 (unit inferred)): 100%
viability ([1]; KPC CAFs (2D culture), CAFs, PXS-5505 3 (unit inferred)): 94.8%
viability ([1]; KPC CAFs (2D culture), CAFs, PXS-5505 30 (unit inferred)): 101%
viability ([1]; KPC CAFs (2D culture), CAFs, PXS-5505 100 (unit inferred)): 89.7%
viability ([1]; KPC CAFs (2D culture), CAFs, PXS-5505 300 (unit inferred)): 92.6%
viability ([1]; KPC cancer cells (CCs, 2D culture), Cancer cells, PXS-5505 0.3 (unit inferred)): 100%
viability ([1]; KPC cancer cells (CCs, 2D culture), Cancer cells, PXS-5505 3 (unit inferred)): 109%
viability ([1]; KPC cancer cells (CCs, 2D culture), Cancer cells, PXS-5505 30 (unit inferred)): 110%
viability ([1]; KPC cancer cells (CCs, 2D culture), Cancer cells, PXS-5505 100 (unit inferred)): 102%
viability ([1]; KPC cancer cells (CCs, 2D culture), Cancer cells, PXS-5505 300 (unit inferred)): 98.8%
2D cell viability (MTS assay) (KPC CAFs; PXS-5505 0.3 (unit not given)): 89.24 and 85.85
2D cell viability (MTS assay) (KPC CAFs; PXS-5505 3 (unit not given)): 104.51 and 107.51
2D cell viability (MTS assay) (KPC CAFs; PXS-5505 30 (unit not given)): 111.18 and 108.48
2D cell viability (MTS assay) (KPC CAFs; PXS-5505 100 (unit not given)): 94.55 and 103.25
2D cell viability (MTS assay) (KPC CAFs; PXS-5505 300 (unit not given)): 90.49 and 84.11
effect on proliferation, 2D (KPC CAFs; KPC CAFs, up to 300 µM): nor did it show any effect on proliferation
recovery of lysyl oxidase family activity in the ear ([2]; single 30 mg kg−1 oral, over 120 h): approximately 50%
Lysyl oxidase family activity in the ear ([2]; 4 h): 45.365 and 48.796 and 39.3331 and 45.8641 and 44.4191
Lysyl oxidase family activity in the ear ([2]; 24 h): 63.1181 and 58.052 and 51.7601 and 46.8877 and 41.975
Lysyl oxidase family activity in the ear ([2]; 48 h): 53.5883 and 61.6934 and 50.7554 and 53.1219
Lysyl oxidase family activity in the ear ([2]; 120 h): 62.7632 and 56.3978 and 53.8738 and 91.7643
recovery of lysyl oxidase family activity in the aorta, of initial activity ([3]; rats, single 30 mg kg−1 oral, 24 h after dosing): approximately 50%
Lysyl oxidase family activity in freshly excised aorta ([3]; rats, 4 h): 15.4162 and 30.1157 and 25.1081 and 16.4125 and 13.2925
Lysyl oxidase family activity in freshly excised aorta ([3]; rats, 24 h): 54.6033 and 26.1568 and 51.6931 and 36.2595 and 23.1592
Lysyl oxidase family activity in freshly excised aorta ([3]; rats, 48 h): 62.6086 and 39.9999 and 48.7392 and 69.3553 and 56.8756
Lysyl oxidase family activity in freshly excised aorta ([3]; rats, 120 h): 94.5071 and 44.5094 and 104.61 and 70.2729 and 55.285
calculated block of all lysyl oxidase family activity ([3]; single daily oral dose of 30 mg kg−1, over a 24-h period): > 70%
